Measurements as given in US20200188511A1, “METHODS OF IMPROVING EFFICACY OF ALLERGY VACCINES” (ANERGIS S.A., priority 2018, published 2020).

B1: Aller T2: COP peptide of 71 amino acids, aa 48-118 of Bet v 1 (SEQ ID 4) (peptide)
chain: NGGPGTIKKISFPEGFPFKYVKDRVDEVDHTNFKYNYSVIEGGPIGDTLEKISNEIKIVATPDGGSILKIS

System: Bet v 1-specific IgE
Experiment: In vitro IgE binding (IgE ELISA competition and basophil degranulation assays)
Parameters: species or system human
Experimental: These experiments are necessary to ensure that the presentation of the peptides in the Bet v1 COP-Virosomes is not associated with the appearance of unexpected binding to pre-existing Bet v 1-specific IgE.
Bet v 1 at 2 μg/ml was coated overnight on 96-well Nunc Maxisorp® immunoplates (Thermo Fisher Scientific Inc., Wohlen, Switzerland). Sera from birch allergic persons were diluted either ten-fold or twenty-fold (depending on Bet v 1 specific IgE content) and added to serial dilutions of either Bet v 1 or COPs virosomes and incubated for 15 minutes on ice. Serial dilutions of Bet v 1 and COPs virosomes ranged from 10^−6 M to 10^−12 M, final concentration. Serum antigen mixtures were then added to the ELISA plates.

| Molecule | IgE binding |
| --- | --- |
| Aller T1: COP peptide of 49 amino acids, aa 2-50 of Bet v 1 (SEQ ID 4) (GVFNYETETTSVIPAARLFKAFILDGDNLFPKVAPQAISSVENIEGNGG) | absence of detectable IgE binding |
| Aller T3: COP peptide of 55 amino acids, aa 106-160 of Bet v 1 (SEQ ID 4) (VATPDGGSILKISNKYHTKGDHEVKAEQVKASKEMGETLLRAVESYLLAHSDAYN) | absence of detectable IgE binding |
| B1 | absence of detectable IgE binding |
